# Test results published in patent US11667678B2, “Peptides for the treatment of COVID-19” (priority 2019, dated 2023).
# Peptide text beside a SMILES is read from it.
# Legend:
# control mice = conditions: mouse, in vivo
# [1] = test system: SARS-CoV-2 spike S1-intoxicated C57/BL6 mice; conditions: mouse, in vivo
# [2] = test system: human A549 lung cells stimulated with recombinant SARS-CoV-2 spike S1; conditions: 'See herein and Paidi et al.'; cited from earlier work
# [3] = molecular target: ACE2:SARS-CoV-2 spike S1 binding (UniProt P0DTC2+Q9BYF1)
# [4] = test system: SARS-CoV-2 spike S1-intoxicated C57/BL6 mice; conditions: mouse, in vivo; remark: listed apart in the source
# [5] = test system: human A549 lung cells stimulated with bacterial flagellin; assay type: cell-based
# [6] = test system: human A549 lung cells stimulated with poly IC; assay type: cell-based
# [7] = test system: human A549 lung cells stimulated with recombinant SARS-CoV-2 spike S1; assay type: cell-based
# [8] = test system: human A549 lung cells stimulated with HIV-1 Tat; assay type: cell-based
Molecule,"drug-related side effect (hair loss, appetite loss, weight loss, untoward infection and irritation) (control mice)",arrhythmias (ECG heart functions) [1],fever (body temperature) [1],infiltration of neutrophils into the lungs [1],level of proinflammatory molecules in lungs and serum [1],locomotor activities [1],serum level of C-reactive protein (CRP) [1],SARS-CoV-2 spike S1-induced expression of proinflammatory cytokines [2],SARS-CoV-2 spike S1 binding to immobilized ACE2 [3],body temperature (fever) [4],level of IL-6 mRNA and protein as well as IL-1β mRNA in lungs [4],level of serum IL-6 [4],lung neutrophil infiltration [4],expression of IL-6 and IL-1β induced by flagellin [5],expression of IL-6 and IL-1β induced by poly IC [6],SARS-CoV-2 spike S1-mediated induction of IL-6 and IL-1β (mRNA) [7],expression of IL-6 and IL-1β induced by HIV-1 Tat [8]
"CC(C)[C@H](NC(=O)CNC(=O)[C@H](CC(N)=O)NC(=O)[C@@H](N)[C@@H](C)O)C(=O)NCC(=O)N[C@@H](Cc1ccc(O)cc1)C(=O)O [wtAIDS, TNGVGY] (H-TNGVGY-OH)",did not notice any drug-related side effect,,,,,,,,,,,,,,,,
EDLFYQ (SPIDAR peptide) [wtSPIDAR],,reduced arrhythmias,reduced fever,attenuated,decreased,improved locomotor activities,normalized,markedly suppresses,Inhibition,,,,,,,,
TGGVGD (mAIDS peptide),,,,,,,,,no such inhibition,no such inhibitory effect,no such inhibitory effect,no such inhibitory effect,no such inhibitory effect,had no effect,had no effect,had no effect,had no effect
